Values joined by “and” are separate entries in the source; they are usually repeats but may differ in a detail not shown here. Identical values can stand only once.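 Test compounds were applied to cells in 96-well plates for 48 hours at 5 doses. GI50 is the concentration that inhibits growth by half. TGI marks complete inhibition of growth.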 Some results are limits rather than exact numbers.

Test systems include NCI-H522 lung; OVCAR-3 ovarian; MDA-MB-231 breast; HCT-15 colon; SF-268 CNS; NCI-H23 lung; SK-MEL-2 melanoma; HOP-62 NSCLC; BT-549 breast; RXF 393 renal.
Holding throughout (test): DTP human tumour cell line panel, 48 h

What is called TGI is the concentration at which net growth stops. Read a low TGI as more potent growth arrest. As to `Cc1nc(NC(C)(CO)CO)nc(N/N=C/c2ccc(Cl)cc2)c1C(=O)Nc1ccc(Cl)cc1`, the TGI in the assay on NCI-H522 lung, with OVCAR-3 ovarian, in the assay on MDA-MB-231 breast, in the assay with HCT-15 colon, in the assay on SF-268 CNS and with NCI-H23 lung was > 100 µM in each case. In addition, the TGI in the assay with SK-MEL-2 melanoma, in the assay with HOP-62 NSCLC, in the assay with BT-549 breast and with RXF 393 renal was > 100 µM throughout.
As for `O=C(Nc1ccccc1)N1CCN(C(=O)Nc2ccccc2)C1=S`, the concentration for total growth inhibition (TGI) in the assay with NCI-H522 lung was > 100 µM; with OVCAR-3 ovarian, > 100 µM; with MDA-MB-231 breast, > 100 µM; in the assay with HCT-15 colon it was > 100 µM; in the assay on SF-268 CNS it was 47.8 µM; in the assay on NCI-H23 lung, 55.4 µM. In addition, the TGI with SK-MEL-2 melanoma is > 100 µM; with HOP-62 NSCLC, 67.9 µM; with BT-549 breast it was > 100 µM; with RXF 393 renal, 43.6 µM.
With `Clc1ccc2c(NCCCCCCNc3ccnc4cc(Cl)ccc34)ccnc2c1`, the TGI worked out at 3.19 µM in the assay on NCI-H522 lung; 3.77 µM with OVCAR-3 ovarian; 10.2 µM with MDA-MB-231 breast; 8.08 µM in the assay on HCT-15 colon; 24.8 µM in the assay on SF-268 CNS; 31.5 µM in the assay on NCI-H23 lung. In addition, the TGI in the assay on SK-MEL-2 melanoma worked out at 12.7 µM; in the assay with HOP-62 NSCLC it was 13.8 µM; in the assay with BT-549 breast it was 27.5 µM; in the assay on RXF 393 renal it was 6.35 µM.
Consider `CC(C)(C)C(=O)Nc1c(C=O)ccc2[nH]cnc12`, for which the TGI in the assay with NCI-H522 lung, in the assay with OVCAR-3 ovarian, in the assay with MDA-MB-231 breast, in the assay on HCT-15 colon, in the assay on SF-268 CNS and in the assay with NCI-H23 lung was > 100 µM each time. The TGI in the assay with SK-MEL-2 melanoma, in the assay with HOP-62 NSCLC, in the assay with BT-549 breast and in the assay on RXF 393 renal was > 100 µM in each case.
With `COC(=O)c1sc(=O)sc1SCc1cccc(CSc2sc(=O)sc2C(=O)OC)c1`, the TGI in the assay on NCI-H522 lung is > 100 µM; in the assay with OVCAR-3 ovarian, > 100 µM; with MDA-MB-231 breast it was 67.4 µM; with HCT-15 colon, > 100 µM; in the assay with SF-268 CNS it was 86.1 µM; with NCI-H23 lung, > 100 µM. For the same compound, the TGI with SK-MEL-2 melanoma was > 100 µM; with HOP-62 NSCLC, 35.7 µM; with BT-549 breast, > 100 µM; with RXF 393 renal, 73.2 µM.
Regarding `C[n+]1cccc2ccc3cccnc3c21`, the TGI in the assay on NCI-H522 lung is 35.1 µM; in the assay on OVCAR-3 ovarian, > 100 µM; in the assay with MDA-MB-231 breast, > 100 µM; with HCT-15 colon, > 100 µM; with SF-268 CNS, 55.8 µM; in the assay with NCI-H23 lung, > 100 µM. Further, the TGI is 97.1 µM in the assay with SK-MEL-2 melanoma, 75 µM in the assay on HOP-62 NSCLC, > 100 µM in the assay on BT-549 breast and > 100 µM with RXF 393 renal.
Consider `CCC1(O)CC(CCN(Cc2ccccc2)C(=O)OCc2ccccc2)C(OCc2ccccc2)C1O` (centres undefined), for which the total growth inhibition concentration (TGI) turned out to be 23.5 µM in the assay with NCI-H522 lung; 26.8 µM with OVCAR-3 ovarian; 87.3 µM with MDA-MB-231 breast; 31.7 µM in the assay with HCT-15 colon; 30.4 µM with NCI-H23 lung; 28.7 µM with SK-MEL-2 melanoma. Besides, the TGI in the assay on HOP-62 NSCLC stood at 29.6 µM; in the assay with BT-549 breast, 33.3 µM; in the assay with RXF 393 renal it was 41.9 µM.
`COc1cccc2c1C(=O)c1c(O)c3c(c(O)c1C2=O)C[C@@](O)(C(C)=O)CC3OC1CC(OC2CC(N)C(O)C(C)O2)C(O)C(C)O1` (some centres undefined): the total growth inhibition concentration (TGI) with NCI-H522 lung, in the assay on OVCAR-3 ovarian, in the assay with MDA-MB-231 breast, with HCT-15 colon, in the assay on SF-268 CNS and with NCI-H23 lung was > 100 µM in each case. The TGI in the assay on SK-MEL-2 melanoma, in the assay with HOP-62 NSCLC, in the assay on BT-549 breast and with RXF 393 renal was > 100 µM throughout.
The term GI50 denotes the concentration giving 50% growth inhibition. For `COC(=O)C1OC(O[C@H]2CC[C@]3(C)[C@H]4CC=C5[C@@H]6CC(C)(C)CC[C@]6(C(=O)OC6OCC(O)C(O)C6OC6OC(C)C(OC7OCC(O)C(O)C7O)C(O)C6O)[C@H](O)C[C@@]5(C)[C@]4(C)CC[C@H]3C2(C)C)C(O)C(O)C1O` (some centres undefined), the TGI with NCI-H522 lung was 6.84 µM and 5.14 µM; with OVCAR-3 ovarian, > 78.1 µM and 25 µM; with MDA-MB-231 breast it was 7.48 µM and 4.39 µM; with HCT-15 colon, 42.8 µM and 27.5 µM; with SF-268 CNS, 22.4 µM and 23.2 µM; with NCI-H23 lung it was 4.76 µM and 6.24 µM. The TGI in the assay on SK-MEL-2 melanoma is 7.83 µM and 7.96 µM; in the assay on HOP-62 NSCLC, 17.8 µM and 22.9 µM; in the assay with BT-549 breast, 8.86 µM and 21.8 µM; with RXF 393 renal, 29 µM and 31.2 µM. Besides, the GI50 with BT-549 breast was 3.06 µM and 7.31 µM.
`CC(=O)CC1(CBr)Nc2ccc([N+](=O)[O-])cc2NC1=O` (centres undefined): the TGI with NCI-H522 lung is 41.6 µM; with OVCAR-3 ovarian it was > 100 µM; in the assay with MDA-MB-231 breast, > 100 µM; in the assay on HCT-15 colon, > 100 µM; in the assay on SF-268 CNS it was > 100 µM; with NCI-H23 lung, > 100 µM. Besides, the TGI in the assay on SK-MEL-2 melanoma, with HOP-62 NSCLC, in the assay on BT-549 breast and in the assay on RXF 393 renal was > 100 µM each time.
For `CC(C)(C)C1CCC2c3c([nH]c4ccccc34)C3C(=O)N(c4ccc([N+](=O)[O-])cc4)C(=O)C3C2C1` (centres undefined), the TGI in the assay with NCI-H522 lung is 40.8 µM; in the assay with OVCAR-3 ovarian it was 28.4 µM; with MDA-MB-231 breast it was 48.4 µM; with HCT-15 colon it was > 100 µM; in the assay with SF-268 CNS, 34.8 µM; in the assay on NCI-H23 lung, 33.7 µM. Moreover, the TGI with SK-MEL-2 melanoma came to 29.3 µM; in the assay on HOP-62 NSCLC it was 33.8 µM; in the assay on BT-549 breast it was 36.9 µM; in the assay with RXF 393 renal, 23.6 µM.
Regarding `CCN(CC)C(=S)SC(C(=O)Nc1nnc(-c2ccc(Cl)cc2)o1)c1ccccc1` (centres undefined), the TGI with NCI-H522 lung was 26.6 µM; with OVCAR-3 ovarian, 10.2 µM; with MDA-MB-231 breast, 77.7 µM; with HCT-15 colon it was 18.9 µM; in the assay on SF-268 CNS, 67 µM; in the assay with NCI-H23 lung, > 100 µM. The TGI in the assay on SK-MEL-2 melanoma was > 100 µM; with HOP-62 NSCLC it was 43.1 µM; with BT-549 breast it was 66.7 µM; with RXF 393 renal, 48.8 µM.
For the compound `N#CCCC(C=O)(CCC#N)CCC#N`, the TGI in the assay on NCI-H522 lung, with OVCAR-3 ovarian, in the assay with MDA-MB-231 breast, in the assay on HCT-15 colon, in the assay on SF-268 CNS and in the assay on NCI-H23 lung was > 100 µM throughout. In addition, the TGI with SK-MEL-2 melanoma, with BT-549 breast and in the assay with RXF 393 renal was > 100 µM each time.

Values taken from PubChem BioAssay (NCI).
